Laboratory results reported in patent publication US20050065066A1, “Stabilised insulin compositions” (priority 2002, published 2005).
Like-named read-outs stand apart in the source and are kept apart here. Values belong to the compound of their own block, whether it stands above or below them.

Columns and labels:
[1] = biological target: T1, metal site of insulin R6 hexamers (Homo sapiens, UniProt P01308); experiment: TZD-assay: fluorescence based displacement assay; type: binding
T1 construct: human insulin comprising additional amino acids, i.e. more than 51 amino acids
T1 sequence (P01308 25-54 limits assumed): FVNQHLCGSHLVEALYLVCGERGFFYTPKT
T1 sequence (P01308 90-110 limits assumed): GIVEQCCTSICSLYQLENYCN
Method: The binding affinity of ligands to the metal site of insulin R6 hexamers are measured in a fluorescense based displacement assay. The fluorescence of 5-(4-dimethylaminobenzylidene)thiazolidine-2,4-dione (TZD) which is a ligand for the metal site of insulin R6 is quenched upon displacement from the metal site to the solution. Titration of a ligand to a stock solution of insulin R6 hexamers with this compound mounted in the metal site allows the binding affinity of these ligands to be determined measuring the fluorescence at 455 nm upon excitation at 410 nm.
Stock solution: 0.02 mM human insulin, 0.007 mM Zn-acetate, 40 mM phenol, 0.01 mM TZD in 50 mM tris buffer adjusted to pH=8.0 with NaOH/ClO4^−.
The ligand is dissolved in DMSO to a concentration of 5 mM and added in aliquots to the stock solution to final concentrations of 0-250 µM.
Fluorescence measurements were carried out on a Perkin Elmer Spectrofluorometer LS50B. T main absorption band was excited at 410 nm and emission was detected at 455 nm. The resolution was 10 nm and 2.5 nm for excitation and emission, respectively.
This equation is fitted to the datapoints ΔF(455 nm))=ΔFmax* [ligand]free/(KD(app)*(1+[TZD]/KTZD)+[ligand]free)) KD(app) is the apparent dissociation constant and Fmax is the fluorescence at maximal ligand concentration. The value of KTZD is measured separately to 230 nM
Two different fitting-procedures can be used. One in which both parameters, KD(app) and Fmax, are adjusted to best fit the data and a second in which the value of Fmax is fixed (Fmax=1) and only KD(app) is adjusted. The given data are from the second fitting procedure. The Solver module of Microsoft Excel can be used to generate the fits from the data points.

[2] = Chemical stability of insulin formulations by RPC (reverse phase chromatography); type: physicochemical; settings: formulated human insulin, 3 Zn2+ per hexamer
Method: (§1) The chemical stability of insulin formulations of the invention was characterised by HPLC (RPC, reverse phase chromatography and SEC, size exclusion chromatography). As reference, insulin formulated without ligands of the invention but with 0.3% DMSO was also investigated and shown below: [drawing]
FIG. 10. Reverse phase chromatography of formulated human insulin with 3 Zn^2+ per hexamer, 30 mM phenol, 150 mM mannitol, 3 mM phosphoric acid, sodium hydroxide to pH 7.4 and 0.3% DMSO corresponding to 3 ligands per hexamer at start (upper panel) and after storage for 2 weeks at 37° C. (lower panel): Preservatives before 20 min., “hydrophilic derivatives” (desamido-insulins) 20 min to main top insulin, “hydrophobic derivatives 1” main top to 64 min., and “hydrophobic derivatives 2” (insulin dimers) after 64 min.
(§2) Storage in HPLC 1 ml vials at 45° C. (5 d), 37° C. (2 w), 30° C. (6 w), 25° C. (10 w), 15° C. (30 w) gave about the same increase of transformation products correlating to an increase in reactions constants of a factor 3-4 per 10 degree.
RPC (reverse phase chromatography) on Waters SymmetryShield RP8 column, 150×4.6 mm and 3.5 μm, eluted by A: 0.2 M sodium sulfate+0.04 M sodium phosphate pH 7.2+10% acetonitrile and isocratically (i) or a gradient (g) of B: 70% acetonitrile [minutes/% B(i/g): 0/19, 21/24(i)(sudden change), 51/24(i), 81/39(g), 81.1/0(i), 82.3/19(i)] at flow of 0.9 mL/min and 30° C.

[3] = Chemical stability of insulin formulations by SEC (size exclusion chromatography); type: physicochemical; settings: formulated human insulin, 3 Zn2+ per hexamer
Method: as §1, §2
SEC (size exclusion chromatography) on Waters insulin HMWP column, 300×7.8 mm, eluted by 15:20:65 of acetic acid: acetonitrile: arginine 1 g/L at flow of 1 mL/min and ambient temperature.

[4] = affinity towards the zinc site, TZD-assay, read-out: Kd(app)

Kd [1, 4]: 82 nM
SMILES: CCCCCOc1ccccc1/C=C1\SC(=O)NC1=O [Example 76, 5-(2-Pentyloxybenzylidene)thiazolidine-2,4-dione]

hphil (hydrophilic derivatives, desamido-insulins) ([2]; 5° predicted): (0.287) % formed/year
hphob1 (hydrophobic derivatives 1) ([2]; 5° predicted): (0.153) % formed/year
hphob2 (hydrophobic derivatives 2, insulin dimers) ([2]; 5° predicted): (0.044) % formed/year
hphil (hydrophilic derivatives, desamido-insulins) ([2]; 15° C.): 1.14 % formed/year
hphob1 (hydrophobic derivatives 1) ([2]; 15° C.): 0.67 % formed/year
hphob2 (hydrophobic derivatives 2, insulin dimers) ([2]; 15° C.): 0.29 % formed/year
hphil (hydrophilic derivatives, desamido-insulins) ([2]; 25° C.): 2.86 % formed/year
hphob1 (hydrophobic derivatives 1) ([2]; 25° C.): 4.78 % formed/year
hphob2 (hydrophobic derivatives 2, insulin dimers) ([2]; 25° C.): 0.99 % formed/year
hphil (hydrophilic derivatives, desamido-insulins) ([2]; 30° C.): 5.12 % formed/year
hphob1 (hydrophobic derivatives 1) ([2]; 30° C.): 7.11 % formed/year
hphob2 (hydrophobic derivatives 2, insulin dimers) ([2]; 30° C.): 1.99 % formed/year
hphil (hydrophilic derivatives, desamido-insulins) ([2]; 37° C.): 11.2 % formed/year
hphob1 (hydrophobic derivatives 1) ([2]; 37° C.): 20.0 % formed/year
hphob2 (hydrophobic derivatives 2, insulin dimers) ([2]; 37° C.): 7.02 % formed/year
hphil (hydrophilic derivatives, desamido-insulins) ([2]; 45° C.): 29.9 % formed/year
hphob1 (hydrophobic derivatives 1) ([2]; 45° C.): 52.6 % formed/year
hphob2 (hydrophobic derivatives 2, insulin dimers) ([2]; 45° C.): 23.4 % formed/year
dimer ([3]; 5° predicted): (0.057) % formed/year
dimer ([3]; 15° C.): 0.33 % formed/year
dimer ([3]; 25° C.): 1.20 % formed/year
dimer ([3]; 30° C.): 2.34 % formed/year
dimer ([3]; 37° C.): 6.50 % formed/year
dimer ([3]; 45° C.): 23.4 % formed/year
SMILES: O=C(O)COc1cccc(/C=C2\SC(=O)NC2=O)c1 [Example 461, [3-(2,4-Dioxothiazolidin-5-ylidenemethyl)phenoxy]acetic acid]

melting point: 251 to 254 °C
SMILES: O=C1NC(=O)/C(=C/C(Cl)=C/c2ccccc2)S1 [Example 241, 5-(2-Chloro-3-phenylallylidene)thiazolidine-2,4-dione]

melting point: 200 to 202 °C
SMILES: c1cc(COc2ccc3ccccc3c2)cc(-c2nnn[nH]2)c1 [Example 572, 5-(3-(Naphthalen-2-yloxymethyl)-phenyl)-1H-tetrazole]

melting point: 152 to 154 °C
SMILES: O=C1NC(=O)/C(=C/c2c(Cl)cccc2Cl)S1 [Example 229, 5-(2,6-Dichlorobenzylidene)thiazolidine-2,4-dione]

melting point: 256 °C
SMILES: COc1cc(/C=C2\SC(=O)NC2=O)cc(I)c1O [Example 167, 5-(4-Hydroxy-3-iodo-5-methoxybenzylidene)thiazolidine-2,4-dione]

melting point: 259 to 263 °C
SMILES: CN(C)c1ccc(/C=C/C=C2\SC(=O)NC2=O)cc1 [Example 239, 5-[3-(4-Dimethylaminophenyl)allylidene]thiazolidine-2,4-dione]

melting point: 255 to 256 °C
SMILES: COc1cc(OCc2c(F)cccc2[N+](=O)[O-])cc(OC)c1C=C1SC(=O)NC1=O [Example 237, 5-[4-(2-Fluoro-6-nitrobenzyloxy)-2,6-dimethoxybenzylidene]thiazolidine-2,4-dione]

melting point: 203 to 210 °C
SMILES: CC(/C=C1\SC(=O)NC1=O)=C\c1ccccc1 [Example 240, 5-(2-Methyl-3-phenylallylidene)thiazolidine-2,4-dione]

Kd [1, 4]: 68 nM
SMILES: O=C(O)COc1ccc(/C=C2\SC(=O)NC2=O)c2ccccc12 [Example 476, [4-(2,4-Dioxothiazolidin-5-ylidenemethyl)naphthalen-1-yloxy]acetic acid]

Kd [1, 4]: 3880 nM
SMILES: c1ccc2[nH]nnc2c1 [Example 1]

Kd [1, 4]: 23 nM
SMILES: Fc1ccc(Cn2c3ccccc3c3cc(-c4nn[nH]n4)ccc32)c(F)c1 [Example 759, 9-(2,4-Difluorobenzyl)-3-(2H-tetrazol-5-yl)-9H-carbazole]

melting point: 338 to 347 °C
SMILES: O=C1NC(=O)/C(=C/c2cc3ccccc3[nH]c2=O)S1 [Example 242, 5-(2-Oxo-1,2-dihydroquinolin-3-ylmethylene)thiazolidine-2,4-dione]

melting point: 104 to 105 °C
SMILES: Cc1cccc(C)c1/C=C1\SC(=O)NC1=O [Example 235, 5-(2,6-Dimethylbenzylidene)thiazolidine-2,4-dione]

melting point: 310 to 314 °C
SMILES: O=C1NC(=O)/C(=C/c2ccc3cc(O)ccc3c2)S1 [Example 171, 5-(6-Hydroxy-2-naphthylmethylene)thiazolidine-2,4-dione]

melting point: 330 to 333 °C
SMILES: O=C1NC(=O)C(=Cc2c[nH]c3ccc([N+](=O)[O-])cc23)S1 [Example 199, 5-(5-Nitro-1H-indol-3-ylmethylene)thiazolidine-2,4-dione]

melting point: 265 to 266 °C
SMILES: O=C1NC(=O)/C(=C/c2cc3ccccc3o2)S1 [Example 238, 5-Benzofuran-2-ylmethylenethiazolidine-2,4-dione]

melting point: 241 to 242 °C
SMILES: COc1cccc(OC)c1/C=C1\SC(=O)NC1=O [Example 236, 5-(2,6-Dimethoxybenzylidene)thiazolidine-2,4-dione]

SMILES: CN(C)c1ccc(/C=C2\SC(=O)NC2=O)cc1 [TZD, 5-(4-dimethylaminobenzylidene)thiazolidine-2,4-dione, reference compound]
Kd ([1]; measured separately, read-out: KTZD): 230 nM

melting point: 331 to 333 °C
SMILES: COc1cc(O)cc(OC)c1/C=C1\SC(=O)NC1=O [Example 234, 5-(4-Hydroxy-2,6-dimethoxybenzylidene)thiazolidine-2,4-dione]

hphil (hydrophilic derivatives, desamido-insulins) ([2]; 5° predicted): (0.54) % formed/year
hphob1 (hydrophobic derivatives 1) ([2]; 5° predicted): (0.22) % formed/year
hphob2 (hydrophobic derivatives 2, insulin dimers) ([2]; 5° predicted): (0.064) % formed/year
hphil (hydrophilic derivatives, desamido-insulins) ([2]; 15° C.): 1.95 % formed/year
hphob1 (hydrophobic derivatives 1) ([2]; 15° C.): 1.09 % formed/year
hphob2 (hydrophobic derivatives 2, insulin dimers) ([2]; 15° C.): 0.42 % formed/year
hphil (hydrophilic derivatives, desamido-insulins) ([2]; 25° C.): 6.08 % formed/year
hphob1 (hydrophobic derivatives 1) ([2]; 25° C.): 4.99 % formed/year
hphob2 (hydrophobic derivatives 2, insulin dimers) ([2]; 25° C.): 0.94 % formed/year
hphil (hydrophilic derivatives, desamido-insulins) ([2]; 30° C.): 12.1 % formed/year
hphob1 (hydrophobic derivatives 1) ([2]; 30° C.): 6.94 % formed/year
hphob2 (hydrophobic derivatives 2, insulin dimers) ([2]; 30° C.): 3.03 % formed/year
hphil (hydrophilic derivatives, desamido-insulins) ([2]; 37° C.): 23.7 % formed/year
hphob1 (hydrophobic derivatives 1) ([2]; 37° C.): 14.8 % formed/year
hphob2 (hydrophobic derivatives 2, insulin dimers) ([2]; 37° C.): 6.50 % formed/year
hphil (hydrophilic derivatives, desamido-insulins) ([2]; 45° C.): 56.2 % formed/year
hphob1 (hydrophobic derivatives 1) ([2]; 45° C.): 78.8 % formed/year
hphob2 (hydrophobic derivatives 2, insulin dimers) ([2]; 45° C.): 27.0 % formed/year
dimer ([3]; 5° predicted): (0.15) % formed/year
dimer ([3]; 15° C.): 0.69 % formed/year
dimer ([3]; 25° C.): 2.24 % formed/year
dimer ([3]; 30° C.): 3.55 % formed/year
dimer ([3]; 37° C.): 8.84 % formed/year
dimer ([3]; 45° C.): 29.2 % formed/year
SMILES: CCN(CC)c1ccc(/C=C2\SC(=O)NC2=O)cc1 [Example 70, 5-(4-Diethylaminobenzylidene)thiazolidine-2,4-dione]
